According to US9290570B2, “Pan-ELR+ CXC Chemokine Antibodies” (Eli Lilly and Company, priority 2013, dated 2016):

Key:
[1] = system: SKOV3-Luc ovarian cancer cells; assay: SKOV3-Luc ovarian cancer xenograft model; type: in vivo, mice; settings: cisplatin 2.5 mg/kg, Antibody 1 20 mg/kg once a week intraperitoneal
Procedure: SKOV3-Luc is a human ovary cancer cell line that expresses firefly luciferase gene. SKOV3-Luc cells are often used in vivo to establish human ovarian adenocarcinoma tumor growth.
SKOV3-Luc ovarian cancer cells were mixed 1:1 with matrigel and implanted subcutaneously in the right rear flank of athymic nude female mice at 3.0×10^6 cells per injection. Mice were randomized into 4 groups at baseline according to tumor volume after the xenografts were grown to an average tumor volume of 200 mm^3 Mice received either control IgG4 antibody (2.5 mg/kg once a week), cisplatin (2.5 mg/kg once a week), Antibody 1 (20 mg/kg once a week), or a combination of cisplatin (2.5 mg·kg once a week) and Antibody 1 (20 mg/kg once a week) by intraperitoneal injection.

human CXCR2 = target: T1, human CXCR2 (Homo sapiens, UniProt P25025); assay: U937-huCXCR2 FLIPR activity of wild type and mutant human CXCL8; type: cell-based; settings: activity of the CXCL8 variant itself on U937-huCXCR2 cells
T1 construct: expressed in transfected cells; host or cells: U937 monocytic cell line, retrovirally transduced (U937-huCXCR2)
T1 sequence (P25025 1-360): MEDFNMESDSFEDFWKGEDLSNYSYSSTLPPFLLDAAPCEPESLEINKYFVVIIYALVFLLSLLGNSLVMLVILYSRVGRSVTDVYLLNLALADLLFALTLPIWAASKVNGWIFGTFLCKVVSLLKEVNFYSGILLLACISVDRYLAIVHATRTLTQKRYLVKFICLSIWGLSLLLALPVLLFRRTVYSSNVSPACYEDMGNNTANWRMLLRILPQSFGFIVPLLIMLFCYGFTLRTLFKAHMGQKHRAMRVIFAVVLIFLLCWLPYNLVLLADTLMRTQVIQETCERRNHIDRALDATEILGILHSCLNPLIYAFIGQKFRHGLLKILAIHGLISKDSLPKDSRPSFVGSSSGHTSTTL
Procedure: Wild type and mutant human CXCL8 are tested for biologic activity and for neutralization by Antibody 1 using the U937-huCXCR2 assay. U937-huCXCR2 is a monocytic cell line transduced with retrovirus for expression of human CXCR2. A description of the U937-huCXCR2 assay is found below under Neutralizing Assays.
CXCL8 mutants are serially diluted in Assay Buffer containing 0.2% BSA in wells of v-bottom 96-well polypropylene plates. Ligand concentrations are 3 times the final assay concentration (final assay concentrations range from 300 to 0.0051 nM). A cell plate and a ligand plate are loaded into a Fluorescent Imaging Plate Reader (FLIPR-3, Molecular Devices) programmed to transfer 50 μL of ligand to wells of the cell plate. Fluorescence is recorded at 1 second intervals for 90 seconds. The change in fluorescence [delta relative fluorescence units (DRFU), Max RFU-Min RFU] is calculated from images 10 to 90. DRFU versus log (ligand concentration) is plotted and EC50 values are determined by nonlinear regression using Graph Pad Prism. Assays are performed in triplicate over three assay plates.

| Compound | tumor growth inhibition compared to isotype control [1] | U937 FLIPR activity (EC50) (human CXCR2) |
| --- | --- | --- |
| N.N.[Cl][Pt][Cl] [Cisplatin, cisplatin] | did not show statistically significant tumor growth inhibition |  |
| R6A: R6A point mutant of human CXCL8 (SEQ ID NO: 27) [Antibody R6A] |  | Not Active |
